# Laboratory results from patent US20250042880A1 (UNIVERSITY OF KENTUCKY RESEARCH FOUNDATION, priority 2021, published 2025).
# Entries after “also recorded” stand apart in the source; their conditions may differ.
# Legend:
# [1] = administered in vivo; cited from earlier work
# [2] = test system: A2780 ovarian cancer cells; conditions: cited from earlier work
# SKOV-3 cells = conditions: growth inhibition; cited from earlier work
# OVCAR-3 cells = conditions: growth inhibition; cited from earlier work
# DLD-1 CRC cells = conditions: cited from earlier work
# [3] = test system: SKOV-3 ovarian cancer xenograft; conditions: 4.5 mg/kg/day for 4 weeks; cited from earlier work
# [4] = test system: BT549, MDA-MB-436 and HCC70; conditions: 3 μM; cited from earlier work
# LS174T xenografts = LS174T xenografts in SCID mice; format: in vivo, mouse
# Description: In vivo evaluation of anti-cancer activity in LS174T xenografts—The mouse studies were conducted with the approval of the University of Kentucky Institutional Animal Care and Use Committee (2020-3531). All methods were carried out in compliance with the relevant guidelines and regulations according to protocols. The LS174T cells in exponential growth phase were trypsinized and resuspended in 50% Matrigel (Corning, Glendale, Arizona). Cells (1.2×10^6) were subcutaneously injected on the lower flanks of severe combined immunodeficient mice. The tumor volumes were calculated based on the formula Length×width^2/2. When tumors reached an average volume of 100 mm^3, the mice were divided into control and treatment groups (3 male and 3 female mice/group, two tumors on each mouse). After tumors were established, BAY-876 was given to the mice by gavage feeding to the BAY-876 group at the dose of 3 mg/kg/day. DBI-1 was daily intraperitoneally (i.p.) administered to the DBI-1 group at dose of 40 mg/kg mouse body weight. Mice in the combination treatment group were administered both oral BAY-876 at the dose of 3 mg/kg/day and i.p. DBI-1 at dose of 40 mg/kg mouse body weight. Tumors and mouse weights were measured every three days and the experiment was stopped at day 12. Tumors were isolated and fixed in 10% neutral buffered formalin. Tumor sections were analyzed with H&E and Ki-67 staining at Markey Cancer Center's Biospecimen Procurement and Translational Pathology Shared Resource Facility (BPTP SRF).
# [5] = test system: AMPK, mTOR and Wnt signaling; assay: Western blotting of cell signaling pathways in CRC cells; format: cell-based
# Description: Western blotting-Western blotting was carried out following previously reported procedures (50). Cells were incubated in 6-well plates and were treated with either DMSO or compounds dissolved in DMSO at indicated concentrations. Cells were lysed in 500 μl of lysis buffer: 50 mM HEPES, 100 mM NaCl, 2 mM EDTA, 1% (v/v) glycerol, 50 mM NaF, 1 mM Na3VO4, 1% (v/v) Triton X-100, with protease inhibitors (Sigma, P8340). The cell lysates were centrifuged (18,000×g, 10 min) and then 6× protein loading buffer was added to the suppernatants. The samples were boiled for 3 min and analyzed by standard Western blotting methods with the indicated antibodies.
# Western blotting was performed as previously reported procedures (41). Cells were split into 6-well plates and incubated for 24 hours. Either DMSO or compounds dissolved in DMSO at indicated concentrations were added to each well for another 24 hours. Cells were lysed in 500 μL of lysis buffer containing 50 mmol/L HEPES, 100 mmol/L NaCl, 2 mmol/L EDTA, 1% (v/v) glycerol, 50 mmol/L NaF, 1 mmol/L Na3VO4, 1% (v/v) Triton X-100, and protease inhibitors (Sigma, P8340). Cell lysates were centrifuged for 10 minutes (18,000×g), and the supernatants were mixed with 6×protein loading buffer and boiled for 3 minutes. The samples were analyzed by standard Western blotting methods using the appropriate antibodies.
# mitochondrial complex I = assay: Mitochondrial ETC complex activity using PMP-permeabilized cells; format: cell-based
# Description: Mitochondrial ETC complex activity measurements using PMP-Measurements of mitochondrial ETC complex activity were performed using the Agilent Seahorse Assay with XF PMP (Agilent, Santa Clara, CA) according to the manufacturer's instructions. Mitochondrial assay solution (MAS) was prepared with 220 mM mannitol, 70 mM sucrose, 10 mM KH2PO4, 5 mM MgCl2, 2 mM HEPES, 1 mM EGTA, and 0.2% (w/v) fatty acid free BSA. Cells were gen Ly washed with MAS and cell media was replaced with MAS supplemented with 4 mM adenosine diphosphate (ADP), 10 mM pyruvate, and 1 nM PMP. After calibration, the test was prompμLy carried out by measuring baseline with two cycles of 0.5 min mixing, 0.5 min waiting, and 2 min measuring. Following the baseline measurements, DMSO, test compounds or 2 μM rotenone, 10 mM succinate, 2 μM antimycin A, and a combination of 10 mM ascorbate and 100 μM TMPD were sequentially injected. The experiment data were then normalized to cell counts using Biotek Cytation 1 (BioTek Instruments, Winooski, VT, USA).
# Mitochondrial ETC complex activity was measured using the Agilent Seahorse Assay with XF permeabilizer (PMP; Agilent) in compliance with the manufacturer's protocol. […] Following calibration, the baseline OCR was measured with cycles of 0.5-minute mixing, 0.5-minute waiting, and 2-minute measuring to perform the test. […]
Structure (SMILES),oral availability [1],sensitivity of A2780 ovarian cancer cells [2],IC50 (SKOV-3 cells) [nM],IC50 (OVCAR-3 cells) [nM],IC50 (DLD-1 CRC cells) [nM],average weight loss compared to the control group [3] [%],reduction of average tumor volumes [3] [%],reduction of tumor weights [3] [%],"growth of TNBC cell lines BT549, MDA-MB-436 and HCC70 [4]","tumor growth (LS174T xenografts; BAY-876 3 mg/kg/day oral, DBI-1 40 mg/kg/day i.p., two weeks)","toxicity based on mice body weight growth rate (LS174T xenografts; BAY-876 3 mg/kg/day, DBI-1 40 mg/kg/day)","effects on AMPK (pAMPK, pACC), mTOR (p70S6K, pS6) and Wnt (Axin2, c-Myc) signaling ([5]; 3 μM alone, LS174T cells, 24 hours)","AMPK phosphorylation (activation) ([5]; 3 μM, LS174T CRC cells)",ETC complex inhibited (conclusion of Seahorse assays) (mitochondrial complex I; ETC complex-specific inhibitors and PMP-permeabilized cells),pyruvate/NADH-linked respiration (mitochondrial complex I; PMP-permeabilized CRC cells)
"Cc1c(NC(=O)c2cc(C(N)=O)nc3cc(F)ccc23)c(C(F)(F)F)nn1Cc1ccc(C#N)cc1 [BAY-876, N^4-[1-(4-cyanobenzyl)-5-methyl-3-(trifluoromethyl)-1H-pyrazol-4-yl]-7-fluoroquinoline-2,4-dicarboxamide]",orally available,resistant,188,60,2,18,68,66,did not inhibit the growth,inhibited tumor growth,No significant toxicity,,,,
"O=c1c(-c2ccc(Cl)c(Cl)c2)coc2cc(OCCN3CCN(CCO)CC3)ccc12 [DBI-6, 3-(3,4-dichlorophenyl)-7-(2-(4-(2-hydroxyethyl)piperazin-1-yl)ethoxy)-4H-chromen-4-one]",,,,,,,,,,,,activated AMPK signaling (pAMPK and pACC) and inhibited mTOR signaling (p70S6K and pS6); also recorded: more active than DBI-1,best activity in AMPK activation,complex I inhibitor,reduced pyruvate/NADH-linked respiration
